This note sets out measurements from US20120136005A1, “E[…] THE TREATMENT OF ANXIETY” (MERZ PHARMA GmbH & CO. KGaA, priority 2009, published 2012).

For assay [1], the target named is T1, 5-HT2a recombinant receptor (Homo sapiens, UniProt P28223).
T1 construct: expressed in transfected cells
The assay can be described thus: Aequorin cell line functional assay. The note with it: human recombinant cell lines; FIG. 1. The class given is cell-based. The procedure: (§1) Aequorin cell lines expressing the 5-HT2a, 5-HT2b and 5-HT2c non-edited (ne) recombinant receptors were used to evaluate the functional activity of eltoprazine. Aequorin cells grown 18 h prior to the test in media without antibiotics were detached by gentle flushing with PBS-EDTA (5 mM EDTA), recovered by centrifugation and resuspended in “assay buffer” (DMEM/HAM's F12 with HEPES+0.1% BSA protease free). Cells were incubated at room temperature for at least 4 h with Coelenterazine h (Molecular Probes). The reference agonist used were 5-HT and α-methyl-5-HT. For agonist testing, 50 μl of cell suspension were injected on 50 μl of test compound or reference agonist plated in a 96-well plate. The resulting emission of light was recorded using the Hamamatsu Functional Drug Screening System 6000 (FDSS 6000).

Assay [2] concerns the target T2, 5-HT2c non-edited (ne) recombinant receptor (Homo sapiens, UniProt P28335).
T2 construct: expressed in transfected cells
T2 sequence (P28335 33-458): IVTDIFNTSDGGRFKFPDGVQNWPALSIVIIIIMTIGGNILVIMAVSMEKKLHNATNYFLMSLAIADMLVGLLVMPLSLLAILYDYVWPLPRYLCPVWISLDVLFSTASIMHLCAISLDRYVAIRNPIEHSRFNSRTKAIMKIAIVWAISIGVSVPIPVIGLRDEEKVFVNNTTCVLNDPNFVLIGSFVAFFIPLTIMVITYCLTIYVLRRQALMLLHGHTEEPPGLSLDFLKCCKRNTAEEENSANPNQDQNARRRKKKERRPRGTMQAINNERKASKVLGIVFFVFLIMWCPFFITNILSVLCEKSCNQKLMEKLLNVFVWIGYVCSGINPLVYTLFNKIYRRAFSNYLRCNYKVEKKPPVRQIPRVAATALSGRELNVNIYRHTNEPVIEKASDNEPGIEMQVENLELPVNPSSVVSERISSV
As to the kind of experiment: Aequorin cell line functional assay. Type of assay: cell-based. The note with it: human recombinant cell lines; FIG. 1. The procedure:
as §1

In assay [3] the test system is unilaterally 6-OHDA-lesioned rats. As to the kind of experiment: L-DOPA induced dyskinesia (AIM scores) in 6-OHDA-lesioned rat model of Parkinson's disease. The note with it: eltoprazine hydrochloride 0.08, 0.3, 1.25 and 5 mg/kg s.c.; after 21 days of L-DOPA; dose-dependent; FIG. 2. Type of assay: in vivo, Sprague Dawley rats. The procedure:
Male Sprague Dawley rats (Elevage Janvier, Le Genest Saint Isle, France) weighing between 220 and 250 g at the beginning of the study are used in these experiments. They are housed under a 12 h light/dark cycle with free access to standard pelleted food and tap water. Animal treatment and experimental procedures are approved by local ethical committees (Regierungspräsidium Darmstadt; Germany).
Dopamine-denervating lesions are performed on rats anaesthetized with a 5:1 mixture of ketamine and xylazine (1 ml/kg, i.p.). […] The animals' turning behaviour is recorded in an automated rotometer (TSE Rotameter System, TSE-Systems GmbH, Bad Homburg, Germany) over a 90 min period after the intraperitoneal (i.p.) injection of 2.5 mg/kg dexamphetamine sulphate dissolved in saline. […]
In order to evaluate the severity of LID, AIMs are recorded every second day as described by Cenci et al. (1998). […] Each rat is scored on a severity scale from 0 to 4 based on its frequency and persistence (1=occasional; 2=frequent; 3=continuous but interrupted by sensory distraction; 4=continuous, severe and not interrupted by sensory distraction). […]

T1 sequence (P28223 whole entry): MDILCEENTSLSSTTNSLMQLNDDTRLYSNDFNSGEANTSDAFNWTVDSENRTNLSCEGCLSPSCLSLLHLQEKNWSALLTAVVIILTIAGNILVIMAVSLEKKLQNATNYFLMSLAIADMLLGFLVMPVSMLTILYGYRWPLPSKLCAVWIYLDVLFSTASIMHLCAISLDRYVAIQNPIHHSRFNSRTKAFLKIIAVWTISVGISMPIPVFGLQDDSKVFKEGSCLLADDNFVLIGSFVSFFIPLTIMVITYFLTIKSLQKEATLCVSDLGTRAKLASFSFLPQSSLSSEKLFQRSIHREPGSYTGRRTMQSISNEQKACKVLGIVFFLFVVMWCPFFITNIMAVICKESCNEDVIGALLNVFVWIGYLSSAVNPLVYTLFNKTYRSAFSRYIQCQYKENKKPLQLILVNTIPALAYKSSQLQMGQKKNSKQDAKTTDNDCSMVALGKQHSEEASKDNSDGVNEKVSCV

Take `c1cc2c(c(N3CCNCC3)c1)OCCO2` [eltoprazine, 1-(2,3-dihydro-1,4-benzodioxin-5-yl)piperazine]: the “functional activity at 5-HT2a receptor” value in assay [1] is given as “full agonist”. Moreover, the “functional activity at 5-HT2c receptor” value in assay [2] is recorded as “full agonist”. Moreover, in assay [3], the “effect on AIM scores” value was “significantly reverses”.
